≈ marks a conversion by molar mass, not a printed value. Like-named read-outs stand apart in the source and are kept apart here.
Tests used:
[1] = test system: Bacillus cereus (clinical isolate); experiment: Antibacterial microdilution (MIC/MBC); type: cell-based; settings: B.c. (B. cereus)
Method: (§1) The synthesized compounds (Table 1) were evaluated for their antibacterial activity against a panel of eight species using a microdilution method with ampicillin and streptomycin as reference drugs. […] The order of activity can be presented as: 8 > 11 > 2 > 1 > 12 > 3 > 17 > 7 > 5 > 13 > 14 > 16 > 9 > 4 = 6 > 15 > 10. […] Cloacae. […] The most sensitive bacteria appeared to be En. cloacae, while E. coli was the most resistant one, followed by M. flavus.
(§2) The following Gram-negative bacteria: Escherichia coli (ATCC 35210), Enterobacter cloacae (clinical isolate), Salmonella typhimurium (ATCC 13311), as well as Gram-positive bacteria: Listeria monocytogenes (NCTC 7973), Bacillus cereus (clinical isolate), and Staphylococcus aureus (ATCC 6538) were used. The organisms were obtained from the Mycological Laboratory, Department of Plant Physiology, Institute for Biological Research “Siniša Stankovic”, Belgrade, Serbia. The minimum inhibitory (MIC) and minimum bactericidal (MBC) concentrations were determined by the modified microdilution method, as previously reported.

[2] = test system: Enterobacter cloacae (clinical isolate); experiment: Antibacterial microdilution (MIC/MBC); type: cell-based; settings: Enterobacter cloacae, En.cl (En. cloacae); for MIC: read-out: MIC
Method: as §1, §2

[3] = test system: Escherichia coli (ATCC 35210); experiment: Antibacterial microdilution (MIC/MBC); type: cell-based; settings: E. coli
Method: as §1, §2

[4] = test system: Listeria monocytogenes (NCTC 7973); experiment: Antibacterial microdilution (MIC/MBC); type: cell-based; settings: Listeria monocytogenes, NCTC7973, L.m. (L. monocytogenes); for MIC: read-out: MIC
Method: as §1, §2

M. flavus = experiment: Antibacterial microdilution (MIC/MBC); type: cell-based; settings: Micrococcus flavus; M.f. (M. flavus)
Method: as §1, §2

P. aeruginosa = experiment: Antibacterial microdilution (MIC/MBC); type: cell-based; settings: Pseudomonas aeruginosa, P.a. (P. aeruginosa); for MIC: read-out: MIC
Method: as §1, §2

[5] = test system: Salmonella typhimurium (ATCC 13311); experiment: Antibacterial microdilution (MIC/MBC); type: cell-based; settings: S.t. (S. typhimurium)
Method: as §1, §2

[6] = test system: Staphylococcus aureus (ATCC 6538); experiment: Antibacterial microdilution (MIC/MBC); type: cell-based; settings: S.a. (S. aureus)
Method: as §1, §2

A. ochraceus = experiment: Antifungal bioassay (MIC/MFC); type: cell-based; settings: A.o. (A. ochraceus)
Method: (§3) For the antifungal bioassays, six fungi were used: […] The organisms were obtained from the Mycological Laboratory, Department of Plant Physiology, Institute for Biological Research “Siniša Stankovic”, Belgrade, Serbia. All experiments were performed in duplicate.

[7] = test system: Aspergillus fumigatus (ATCC 1022); experiment: Antifungal bioassay (MIC/MFC); type: cell-based; settings: ATCC1022, A.f. (A. fumigatus)
Method: as §3

[8] = test system: Aspergillus niger (ATCC 6275); experiment: Antifungal bioassay (MIC/MFC); type: cell-based; settings: ATCC6275, A.n. (A. niger)
Method: as §3

[9] = test system: Aspergillus versicolor (ATCC 11730); experiment: Antifungal bioassay (MIC/MFC); type: cell-based; settings: ATCC11730, A.v. (A. versicolor)
Method: as §3

P. ochrochloron = experiment: Antifungal bioassay (MIC/MFC); type: cell-based; settings: for MIC: P.o. (P. ochrochloron; text: P. ochramensis); for MFC: P.o. (P. ochrochloron)
Method: as §3

[10] = test system: Penicillium funiculosum (ATCC 36839); experiment: Antifungal bioassay (MIC/MFC); type: cell-based; settings: Talaromyces funiculosus, ATCC36839; P.f. (P. funiculosum)
Method: as §3

[11] = test system: Trichoderma viride (IAM 5061); experiment: Antifungal bioassay (MIC/MFC); type: cell-based; settings: Trichoderma viride, IAM5061, T.v. (T. viride)
Method: as §3

[12] = test system: Penicillium verrucosum var. cyclopium (food isolate); experiment: Antifungal bioassay (MIC/MFC); type: cell-based
Method: For the antifungal bioassays, six fungi were used: Aspergillus niger (ATCC 6275), Aspergillus fumigatus (ATCC 1022), Aspergillus versicolor (ATCC 11730), Penicillium funiculosum (ATCC 36839), Trichoderma viride (IAM 5061), and Penicillium verrucosum var. cyclopium (food isolate). The organisms were obtained from the Mycological Laboratory, Department of Plant Physiology, Institute for Biological Research “Siniša Stankovic”, Belgrade, Serbia. All experiments were performed in duplicate.

[13] = Escherichia coli, ATCC35210, read-out: MIC
[14] = Salmonella enterica, read-out: MIC
[15] = Staphylococcus aureus, ATCC6538
[16] = Staphylococcus aureus, ATCC6538, read-out: MIC
[17] = Aspergillus ochraceus, read-out: MIC
[18] = Penicillium ochrochloron, read-out: MIC

Structure (SMILES)	MBC ([1]; Bacillus cereus) [µg/mL]	MIC ([1]; Bacillus cereus, read-out: MIC) [µg/mL]	MBC [2] [µg/mL]	MIC [2] [µg/mL]	MBC ([3]; Escherichia coli, ATCC35210) [µg/mL]	MIC [3, 13] [µg/mL]	MBC [4] [µg/mL]	MIC [4] [µg/mL]	MBC (M. flavus) [µg/mL]	MIC (M. flavus) [µg/mL]	MBC (P. aeruginosa) [µg/mL]	MIC (P. aeruginosa) [µg/mL]	MBC ([5]; Salmonella enterica) [µg/mL]	MIC [5, 14] [µg/mL]	MBC [6, 15] [µg/mL]	MIC [6, 16] [µg/mL]	MFC (A. ochraceus; Aspergillus ochraceus) [µg/mL]	MIC (A. ochraceus; [17]) [µg/mL]	MFC [7] [µg/mL]	MIC [7] [µg/mL]	also measured
COC(=O)c1[nH]c2ccccc2c1/C=C1\SC(=S)N(CCCCCC(=O)O)C1=O [Compound 1, (Z)-6-(5-((2-(methoxycarbonyl)-1H-indol-3-yl)methylene)-4-oxo-2-thioxothiazolidin-3-yl)hexanoic acid]	30 ± 10 (≈ 69.4 µM)	15 (≈ 34.7 µM)	30 ± 10 (≈ 69.4 µM)	22 ± 5 (≈ 50.9 µM)	30 ± 10 (≈ 69.4 µM)	15 (≈ 34.7 µM)	60 ± 6 (≈ 139 µM)	22 ± 4 (≈ 50.9 µM)	30 ± 10 (≈ 69.4 µM)	22 ± 5 (≈ 50.9 µM)	60 ± 6 (≈ 139 µM)	22 ± 5 (≈ 50.9 µM)	30 ± 10 (≈ 69.4 µM)	15 (≈ 34.7 µM)	30 ± 10 (≈ 69.4 µM)	22 ± 5 (≈ 50.9 µM)	15 ± 3 (≈ 34.7 µM)	8 (≈ 18.5 µM)	120 ± 40 (≈ 277 µM)	60 ± 6 (≈ 139 µM)	MIC [1]: 15 ± 9 µg/mL (≈ 34.7 µM); MIC [3]: 15 ± 9 µg/mL (≈ 34.7 µM); MIC [5]: 15 ± 9 µg/mL (≈ 34.7 µM); MIC (A. ochraceus): 8 ± 0.6 µg/mL (≈ 18.5 µM); MFC [8]: 30 ± 10 µg/mL (≈ 69.4 µM); MIC [8]: 22 ± 5 µg/mL (≈ 50.9 µM); MFC [9]: 60 ± 6 µg/mL (≈ 139 µM); MIC [9]: 30 ± 10 µg/mL (≈ 69.4 µM); MIC (P. ochrochloron): 4 ± 1 µg/mL (≈ 9.25 µM); MFC (P. ochrochloron; Penicillium ochrochloron): 8 ± 0.6 µg/mL (≈ 18.5 µM); MIC (P. ochrochloron; [18]): 4 µg/mL (≈ 9.25 µM); MFC [10]: 30 ± 10 µg/mL (≈ 69.4 µM); MIC [10]: 15 ± 3 µg/mL (≈ 34.7 µM); MFC [11]: 30 ± 10 µg/mL (≈ 69.4 µM); MIC ([11]; read-out: MIC): 15 ± 3 µg/mL (≈ 34.7 µM); MFC [12]: 60 ± 6 µg/mL (≈ 139 µM); MIC [12]: 30 ± 10 µg/mL (≈ 69.4 µM); melting point: 135 to 138 °C
COC(=O)c1[nH]c2cc(OC)ccc2c1/C=C1\SC(=S)N(c2cccc(F)c2)C1=O [Compound 13, (Z)-methyl 3-((3-(3-fluorophenyl)-4-oxo-2-thioxothiazolidin-5-ylidene)methyl)-6-methoxy-1H-indole-2-carboxylate]	60 ± 6 (≈ 136 µM)	30 ± 10 (≈ 67.8 µM)	30 ± 10 (≈ 67.8 µM)	15 ± 9 (≈ 33.9 µM)	60 ± 6 (≈ 136 µM)	45 ± 3 (≈ 102 µM)	60 ± 6 (≈ 136 µM)	30 ± 10 (≈ 67.8 µM)	60 ± 6 (≈ 136 µM)	45 ± 3 (≈ 102 µM)	60 ± 6 (≈ 136 µM)	30 ± 10 (≈ 67.8 µM)	60 ± 6 (≈ 136 µM)	30 ± 10 (≈ 67.8 µM)	30 ± 10 (≈ 67.8 µM)	15 ± 9 (≈ 33.9 µM)	15 ± 3 (≈ 33.9 µM)	8 ± 0.6 (≈ 18.1 µM)	120 ± 40 (≈ 271 µM)	60 ± 6 (≈ 136 µM)	MFC [8]: 30 ± 10 µg/mL (≈ 67.8 µM); MIC [8]: 15 ± 3 µg/mL (≈ 33.9 µM); MFC [9]: 30 ± 10 µg/mL (≈ 67.8 µM); MIC [9]: 15 ± 3 µg/mL (≈ 33.9 µM); MFC (P. ochrochloron; Penicillium ochrochloron): 30 ± 10 µg/mL (≈ 67.8 µM); MIC (P. ochrochloron; [18]): 15 ± 3 µg/mL (≈ 33.9 µM); MFC [10]: 30 ± 10 µg/mL (≈ 67.8 µM); MIC [10]: 15 ± 3 µg/mL (≈ 33.9 µM); MFC [12]: 30 ± 10 µg/mL (≈ 67.8 µM); MIC [12]: 15 ± 3 µg/mL (≈ 33.9 µM); melting point: 238 to 240 °C
COC(=O)c1[nH]c2ccccc2c1/C=C1\SC(=S)N(CCC(=O)O)C1=O [Compound 17, (Z)-3-(5-((2-(methoxycarbonyl)-1H-indol-3-yl)methylene)-4-oxo-2-thioxothiazolidin-3-yl)propanoic acid]	60 ± 6 (≈ 154 µM)	30 ± 10 (≈ 76.8 µM)	15 ± 9 (≈ 38.4 µM)	8 ± 0.6 (≈ 20.5 µM)	60 ± 6 (≈ 154 µM)	45 ± 3 (≈ 115 µM)	60 ± 6 (≈ 154 µM)	30 ± 10 (≈ 76.8 µM)	60 ± 6 (≈ 154 µM)	30 ± 10 (≈ 76.8 µM)	15 ± 9 (≈ 38.4 µM)	8 (≈ 20.5 µM)	60 ± 6 (≈ 154 µM)	30 ± 10 (≈ 76.8 µM)	15 (≈ 38.4 µM)	8 (≈ 20.5 µM)	15 ± 3 (≈ 38.4 µM)	8 ± 0.6 (≈ 20.5 µM)	120 ± 40 (≈ 307 µM)	60 ± 6 (≈ 154 µM)	MIC [6]: 8 ± 0.6 µg/mL (≈ 20.5 µM); MFC [8]: 15 ± 3 µg/mL (≈ 38.4 µM); MIC [8]: 22 ± 5 µg/mL (≈ 56.3 µM); MFC [9]: 30 ± 10 µg/mL (≈ 76.8 µM); MIC [9]: 15 ± 3 µg/mL (≈ 38.4 µM); MFC (P. ochrochloron; Penicillium ochrochloron): 30 ± 10 µg/mL (≈ 76.8 µM); MIC (P. ochrochloron; [18]): 15 ± 3 µg/mL (≈ 38.4 µM); MFC [10]: 30 ± 10 µg/mL (≈ 76.8 µM); MIC [10]: 15 ± 3 µg/mL (≈ 38.4 µM); MFC [12]: 60 ± 6 µg/mL (≈ 154 µM); MIC [12]: 30 ± 10 µg/mL (≈ 76.8 µM); melting point: 265 to 266 °C
COC(=O)c1[nH]c2ccc(F)cc2c1/C=C1\SC(=S)N(CCC(=O)O)C1=O [Compound 14, (Z)-3-(5-((5-fluoro-2-(methoxycarbonyl)-1H-indol-3-yl)methylene)-4-oxo-2-thioxothiazolidin-3-yl)propanoic acid]	60 ± 6 (≈ 147 µM)	30 ± 10 (≈ 73.5 µM)	30 ± 10 (≈ 73.5 µM)	15 ± 9 (≈ 36.7 µM)	60 ± 6 (≈ 147 µM)	45 ± 3 (≈ 110 µM)	60 ± 6 (≈ 147 µM)	45 ± 3 (≈ 110 µM)	60 ± 6 (≈ 147 µM)	45 ± 3 (≈ 110 µM)	30 ± 10 (≈ 73.5 µM)	15 ± 9 (≈ 36.7 µM)	60 ± 6 (≈ 147 µM)	45 ± 3 (≈ 110 µM)	60 ± 6 (≈ 147 µM)	30 ± 10 (≈ 73.5 µM)	30 ± 10 (≈ 73.5 µM)	15 ± 3 (≈ 36.7 µM)	120 ± 40 (≈ 294 µM)	60 ± 6 (≈ 147 µM)	MFC [8]: 30 ± 10 µg/mL (≈ 73.5 µM); MIC [8]: 15 ± 3 µg/mL (≈ 36.7 µM); MFC [9]: 30 ± 10 µg/mL (≈ 73.5 µM); MIC [9]: 15 ± 3 µg/mL (≈ 36.7 µM); MFC (P. ochrochloron; Penicillium ochrochloron): 30 ± 10 µg/mL (≈ 73.5 µM); MIC (P. ochrochloron; [18]): 15 ± 3 µg/mL (≈ 36.7 µM); MFC [10]: 30 ± 10 µg/mL (≈ 73.5 µM); MIC [10]: 15 ± 3 µg/mL (≈ 36.7 µM); MFC [12]: 30 ± 10 µg/mL (≈ 73.5 µM); MIC [12]: 15 ± 3 µg/mL (≈ 36.7 µM); melting point: 275 to 276 °C

Source: publication PMC9865890, “N-Derivatives of (Z)-Methyl 3-(4-Oxo-2-thioxothiazolidin-5-ylidene)methyl)-1H-indole-2-carboxylates as Antimicrobial Agents—In Silico and In Vitro Evaluation” (Pharmaceuticals, 2023)
